Assay results as given in patent publication US20060276498A1 (Wyeth, priority 2005, published 2006).
pIC50: −log10 of the molar value.

Molecular target: Tpl2 (Homo sapiens, UniProt P41279)
Experiment: not given
Conditions: background statement; cited from earlier work

Sequence of Tpl2 (P41279 whole entry): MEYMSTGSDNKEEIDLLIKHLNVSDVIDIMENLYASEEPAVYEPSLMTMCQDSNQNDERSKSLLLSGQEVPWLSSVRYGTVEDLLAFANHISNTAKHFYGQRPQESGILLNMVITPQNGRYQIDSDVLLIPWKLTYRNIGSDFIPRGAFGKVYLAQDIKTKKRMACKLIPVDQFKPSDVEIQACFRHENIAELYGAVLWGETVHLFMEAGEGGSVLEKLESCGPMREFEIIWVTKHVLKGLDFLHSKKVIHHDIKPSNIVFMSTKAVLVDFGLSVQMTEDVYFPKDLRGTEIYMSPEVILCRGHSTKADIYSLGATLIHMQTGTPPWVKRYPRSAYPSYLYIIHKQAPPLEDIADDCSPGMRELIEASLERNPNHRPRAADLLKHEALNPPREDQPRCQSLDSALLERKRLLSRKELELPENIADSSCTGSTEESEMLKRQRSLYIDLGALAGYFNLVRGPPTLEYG

| SMILES | inhibition of Tpl2 |
| --- | --- |
| CN[C@@H]1C[C@H]2O[C@@](C)([C@@H]1OC)n1c3ccccc3c3c4c(c5c6ccccc6n2c5c31)C(=O)NC4 [staurosporine] | not inhibited |

Molecular target: T1, human Cot/Tpl2 kinase (Homo sapiens, UniProt P41279)
T1 construct: human Cot/Tpl2 kinase construct encoding residues 30-398; 6His (N); made in house; host or cells: Sf9 insect cells (baculovirus system, BD Biosciences)
Experiment: Tpl2/Cot kinase assay, GST-MEK1 phosphorylation detected by ELISA (DELFIA Eu)
Format: biochemical
Conditions: Table 2; additional representative compounds

T1 sequence (P41279 30-398): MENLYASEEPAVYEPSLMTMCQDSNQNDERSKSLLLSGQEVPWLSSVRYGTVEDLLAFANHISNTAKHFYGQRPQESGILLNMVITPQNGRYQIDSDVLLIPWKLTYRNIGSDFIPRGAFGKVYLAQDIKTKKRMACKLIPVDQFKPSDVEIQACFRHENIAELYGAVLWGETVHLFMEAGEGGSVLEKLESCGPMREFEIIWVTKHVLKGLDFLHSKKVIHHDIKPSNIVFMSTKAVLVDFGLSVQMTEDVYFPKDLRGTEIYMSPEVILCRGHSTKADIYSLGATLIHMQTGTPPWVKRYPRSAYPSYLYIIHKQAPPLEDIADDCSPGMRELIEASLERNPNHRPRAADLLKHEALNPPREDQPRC

| SMILES | pIC50 |
| --- | --- |
| N#Cc1cnc2cnc(NCCc3ccc(S(N)(=O)=O)cc3)cc2c1Nc1ccc(F)c(Cl)c1 [Example 120, 4-(2-(4-(3-chloro-4-fluorophenylamino)-3-cyano-1,7-naphthyridin-6-ylamino)ethyl)benzenesulfonamide] | 6.64 |
| N#Cc1cnc2cnc(NCc3cccc(Br)c3)cc2c1Nc1ccc(F)c(Cl)c1 [Example 121, 6-[(3-bromobenzyl)amino]-4-[(3-chloro-4-fluorophenyl)amino]-1,7-naphthyridine-3-carbonitrile] | 6.37 |
| CS(=O)(=O)c1ccc(CNc2cc3c(Nc4ccc(F)c(Cl)c4)c(C#N)cnc3cn2)cc1 [Example 125, 4-[(3-chloro-4-fluorophenyl)amino]-6-{[4-(methylsulfonyl)benzyl]amino}-1,7-naphthyridine-3-carbonitrile] | 7.64 |
| N#Cc1cnc2cnc(NCc3c(Cl)cccc3Cl)cc2c1NCc1c(Cl)cccc1Cl [Example 127, 4,6-bis[(2,6-dichlorobenzyl)amino]-1,7-naphthyridine-3-carbonitrile] | < 4.40 |
| N#Cc1cnc2cnc(F)cc2c1Nc1ccc(OC(F)(F)F)cc1 [Example 128, 6-fluoro-4-{[4-(trifluoromethoxy)phenyl]amino}-1,7-naphthyridine-3-carbonitrile] | < 4.40 |
| CCN1CCC[C@H]1CNc1cc2c(NC3CCCC3)c(C#N)cnc2cn1 [Example 129, 4-(cyclopentylamino)-6-({[(2S)-1-ethylpyrrolidin-2-yl]methyl}amino)-1,7-naphthyridine-3-carbonitrile] | 5.55 |
| C[C@@H](Nc1cc2c(NC3CCCCCC3)c(C#N)cnc2cn1)c1ccccc1 [Example 133, 4-(cycloheptylamino)-6-{[(1R)-1-phenylethyl]amino}-1,7-naphthyridine-3-carbonitrile] | 6.04 |
| C#CC(C)(C)Nc1c(C#N)cnc2cnc(NCc3cccnc3)cc12 [Example 138, 4-[(1,1-dimethylprop-2-ynyl)amino]-6-[(pyridin-3-ylmethyl)amino]-1,7-3-carbonitrile] | < 4.40 |
| N#Cc1cnc2cnc(Nc3c[nH]cn3)cc2c1Nc1ccc(F)c(Cl)c1 [Example 140, 4-[(3-chloro-4-fluorophenyl)amino]-6-{[4(5)imidazolyl]amino}-1,7-naphthyridine-3-carbonitrile] | 7.10 |
| N#Cc1cnc2cnc(NC3CCCCCC3)cc2c1Nc1ccc(F)c(Cl)c1 [Example 144, 4-[(3-chloro-4-fluorophenyl)amino]-6-(cycloheptylamino)-1,7-naphthyridine-3-carbonitrile] | 5.28 |
| N#Cc1cnc2cnc(NCc3cccnc3)cc2c1NCc1cccnc1 [Example 145, 4,6-bis(pyridin-3-ylmethylamino)-1,7-naphthyridine-3-carbonitrile] | < 4.40 |

Next, values leading:

| pIC50 | SMILES |
| --- | --- |
| 7.51 | N#Cc1cnc2cnc(NCc3ccncc3)cc2c1Nc1ccc(F)c(Cl)c1 [Example 119, 4-(3-chloro-4-fluorophenylamino)-6-(pyridin-4-ylmethylamino)-1,7-naphthyridine-3-carbonitrile] |
| 5.60 | N#Cc1cnc2cnc(NCCN3CCCCC3)cc2c1Nc1ccc(F)c(Cl)c1 [Example 122, 4-[(3-chloro-4-fluorophenyl)amino]-6-[(2-piperidin-1-ylethyl)amino]-1,7-naphthyridine-3-carbonitrile] |
| 6.89 | N#Cc1cnc2cnc(NCc3ccccn3)cc2c1Nc1ccc(F)c(Cl)c1 [Example 123, 4-(3-chloro-4-fluorophenylamino)-6-(pyridin-2-ylmethylamino)-1,7-naphthyridine-3-carbonitrile] |
| 6.43 | COc1ccccc1CNc1cc2c(Nc3ccc(F)c(Cl)c3)c(C#N)cnc2cn1 [Example 124, 4-[(3-chloro-4-fluorophenyl)amino]-6-[(2-methoxybenzyl)amino]-1,7-naphthyridine-3-carbonitrile] |
| 4.61 | N#Cc1cnc2cnc(NCc3c(Cl)cccc3Cl)cc2c1Nc1ccc(F)c(Cl)c1 [Example 126, 4-[(3-chloro-4-fluorophenyl)amino]-6-[(2,6-dichlorobenzyl)amino]-1,7-naphthyridine-3-carbonitrile] |
| 5.34 | CC(C)(C)Nc1c(C#N)cnc2cnc(NCc3ccc(S(C)(=O)=O)cc3)cc12 [Example 130, 4-(tert-butylamino)-6-{[4-(methylsulfonyl)benzyl]amino}-1,7-naphthyridine-3-carbonitrile] |
| 6.25 | C[C@@H](Nc1cc2c(N[C@H](C)c3ccccc3)c(C#N)cnc2cn1)c1ccccc1 [Example 131, 4,6-bis{[(1R)-1-phenylethyl]amino}-1,7-naphthyridine-3-carbonitrile] |
| 4.77 | CS(=O)(=O)c1ccc(CNc2cc3c(NCc4ccc(S(C)(=O)=O)cc4)c(C#N)cnc3cn2)cc1 [Example 132, 4,6-bis{[4-(methylsulfonyl)benzyl]amino}-1,7-naphthyridine-3-carbonitrile] |
| 7.00 | CCC(C)(C)Nc1c(C#N)cnc2cnc(NCc3cccnc3)cc12 [Example 135, 4-[(1,1-dimethylpropyl)amino]-6-[(pyridin-3-ylmethyl)amino]-1,7-naphthyridine-3-carbonitrile] |
| 6.44 | CN(c1c(C#N)cnc2cnc(F)cc12)C1CCCCCC1 [Example 136, 4-[cycloheptyl(methyl)amino]-6-fluoro-1,7-naphthyridine-3-carbonitrile] |
| < 4.40 | C[C@@H](Nc1cc2c(N(C)C3CCCCCC3)c(C#N)cnc2cn1)c1ccccc1 [Example 137, 4-[cycloheptyl(methyl)amino]-6-{[(1R)-1-phenylethyl]amino}-1,7-naphthyridine-3-carbonitrile] |
| 6.57 | Cn1nc(C(C)(C)C)cc1Nc1c(C#N)cnc2ccc(N)cc12 [Example 139, 6-amino-4-[(3-tert-butyl-1-methyl-1H-pyrazol-5-yl)amino]quinoline-3-carbonitrile] |
| < 4.40 | CCC(C)(C)Nc1c(C#N)cnc2cnc(F)cc12 [Example 141, 4-[(1,1-dimethylpropyl)amino]-6-fluoro-1,7-naphthyridine-3-carbonitrile] |
| 4.55 | C#CC1(Nc2c(C#N)cnc3cnc(F)cc23)CCCCC1 [Example 142, 4-[(1-ethynylcyclohexyl)amino]-6-fluoro-1,7-naphthyridine-3-carbonitrile] |
| < 4.40 | CC(C)(C)Nc1cc2c(Nc3ccc(F)c(Cl)c3)c(C#N)cnc2cn1 [Example 143, 6-(tert-butylamino)-4-[(3-chloro-4-fluorophenyl)amino]-1,7-naphthyridine-3-carbonitrile] |
